Data reported in paper PMC9299122, “Terpene synthases in cucumber (Cucumis sativus) and their contribution to herbivore‐induced volatile terpenoid emission” (The New Phytologist, 2021).

Legend:
Test in all cases: product formation, stir-bar GC-MS, recombinant E. coli protein
Assay type in all cases: cell-based
CsTPS24 = molecular target: T1, CsTPS24 (Cucumis sativus, UniProt Q9FRX5); conditions: 30 °C, 60 min
T1 construct: gene CsKS1; full-length cDNA in pACYCDuet, E. coli BL21(DE3); gene on chromosome VII; predicted plastid transit peptide
T1 sequence (Q9FRX5 1-785): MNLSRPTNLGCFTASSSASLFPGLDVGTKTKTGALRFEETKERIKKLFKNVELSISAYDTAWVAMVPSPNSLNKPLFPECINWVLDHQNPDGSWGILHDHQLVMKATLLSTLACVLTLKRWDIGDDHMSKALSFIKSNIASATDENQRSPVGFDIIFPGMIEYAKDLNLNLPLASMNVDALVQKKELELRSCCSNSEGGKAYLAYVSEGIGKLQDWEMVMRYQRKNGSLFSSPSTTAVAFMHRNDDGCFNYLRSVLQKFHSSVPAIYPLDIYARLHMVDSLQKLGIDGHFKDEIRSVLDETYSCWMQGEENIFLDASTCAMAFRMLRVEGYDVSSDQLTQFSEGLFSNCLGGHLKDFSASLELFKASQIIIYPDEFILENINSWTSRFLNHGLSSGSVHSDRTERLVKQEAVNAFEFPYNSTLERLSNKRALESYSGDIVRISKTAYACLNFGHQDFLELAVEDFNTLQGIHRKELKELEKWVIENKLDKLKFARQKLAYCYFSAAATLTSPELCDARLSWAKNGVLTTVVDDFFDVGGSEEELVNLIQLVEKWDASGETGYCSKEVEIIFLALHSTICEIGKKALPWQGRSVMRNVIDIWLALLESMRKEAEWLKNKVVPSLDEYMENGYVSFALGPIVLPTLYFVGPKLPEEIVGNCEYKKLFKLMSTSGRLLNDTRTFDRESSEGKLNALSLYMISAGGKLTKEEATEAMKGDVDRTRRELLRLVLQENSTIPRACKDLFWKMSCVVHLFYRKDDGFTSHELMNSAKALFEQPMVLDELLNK

CsTPS12 = molecular target: T2, CsTPS12 (Cucumis sativus, UniProt A0A0A0LN25); conditions: 30 °C, 60 min; 10 µM substrate
T2 construct: gene Csa_2G427840; full-length cDNA in pACYCDuet, E. coli BL21(DE3); no targeting peptide predicted
T2 sequence (A0A0A0LN25 1-565): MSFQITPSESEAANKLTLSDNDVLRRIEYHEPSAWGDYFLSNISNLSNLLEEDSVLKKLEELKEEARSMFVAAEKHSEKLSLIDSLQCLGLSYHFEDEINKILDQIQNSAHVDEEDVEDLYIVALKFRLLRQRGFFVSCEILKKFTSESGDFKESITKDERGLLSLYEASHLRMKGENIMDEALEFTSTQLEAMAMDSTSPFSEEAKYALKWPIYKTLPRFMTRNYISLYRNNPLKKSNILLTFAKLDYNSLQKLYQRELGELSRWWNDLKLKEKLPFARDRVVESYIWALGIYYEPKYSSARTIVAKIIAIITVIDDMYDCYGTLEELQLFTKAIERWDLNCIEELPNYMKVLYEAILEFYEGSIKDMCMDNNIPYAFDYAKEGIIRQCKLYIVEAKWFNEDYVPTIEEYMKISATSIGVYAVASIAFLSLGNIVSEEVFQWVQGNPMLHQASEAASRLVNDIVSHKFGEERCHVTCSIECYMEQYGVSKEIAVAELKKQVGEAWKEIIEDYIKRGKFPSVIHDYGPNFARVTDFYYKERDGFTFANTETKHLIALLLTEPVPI

CsTPS14 = molecular target: T3, CsTPS14 (Cucumis sativus, UniProt A0A0A0L1X6); conditions: 30 °C, 60 min; 10 µM substrate
T3 construct: gene Csa_3G039850; full-length cDNA in pACYCDuet, E. coli BL21(DE3); no targeting peptide predicted
T3 sequence (A0A0A0L1X6 1-562): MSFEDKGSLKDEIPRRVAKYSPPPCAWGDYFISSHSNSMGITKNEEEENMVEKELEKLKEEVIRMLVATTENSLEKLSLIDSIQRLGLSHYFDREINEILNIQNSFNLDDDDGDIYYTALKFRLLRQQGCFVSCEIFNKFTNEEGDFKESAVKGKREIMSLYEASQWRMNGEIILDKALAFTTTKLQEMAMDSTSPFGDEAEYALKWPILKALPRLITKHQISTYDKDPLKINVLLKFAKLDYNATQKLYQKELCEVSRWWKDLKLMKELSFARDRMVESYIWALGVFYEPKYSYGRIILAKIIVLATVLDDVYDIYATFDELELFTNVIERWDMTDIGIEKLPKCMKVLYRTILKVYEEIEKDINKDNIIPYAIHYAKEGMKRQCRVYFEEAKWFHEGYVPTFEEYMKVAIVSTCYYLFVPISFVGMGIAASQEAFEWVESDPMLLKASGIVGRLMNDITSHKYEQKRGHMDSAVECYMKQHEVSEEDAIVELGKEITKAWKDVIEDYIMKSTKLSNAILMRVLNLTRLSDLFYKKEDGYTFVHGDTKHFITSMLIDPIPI

CsTPS22 = molecular target: T4, CsTPS22 (Cucumis sativus, UniProt A0A0A0L2I8); conditions: 30 °C, 60 min; 10 µM substrate
T4 construct: gene Csa_3G097540; full-length cDNA in pACYCDuet, E. coli BL21(DE3)
T4 sequence (A0A0A0L2I8 1-558): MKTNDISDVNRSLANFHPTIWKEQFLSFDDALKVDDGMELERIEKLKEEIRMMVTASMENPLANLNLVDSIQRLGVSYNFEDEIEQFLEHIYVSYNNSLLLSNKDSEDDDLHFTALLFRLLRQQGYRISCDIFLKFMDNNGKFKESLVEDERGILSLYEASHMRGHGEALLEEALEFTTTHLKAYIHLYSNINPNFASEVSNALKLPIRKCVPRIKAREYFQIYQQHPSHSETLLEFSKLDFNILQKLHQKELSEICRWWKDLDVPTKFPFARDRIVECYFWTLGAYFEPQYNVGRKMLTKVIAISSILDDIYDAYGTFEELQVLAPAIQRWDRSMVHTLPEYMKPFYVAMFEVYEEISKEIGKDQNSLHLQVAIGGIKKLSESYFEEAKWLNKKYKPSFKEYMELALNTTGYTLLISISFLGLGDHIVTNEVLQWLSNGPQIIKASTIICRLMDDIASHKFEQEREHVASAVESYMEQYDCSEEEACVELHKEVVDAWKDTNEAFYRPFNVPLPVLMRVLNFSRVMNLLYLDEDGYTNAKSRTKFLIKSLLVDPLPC

CsTPS19 = molecular target: T5, CsTPS19 (Cucumis sativus, UniProt A0A0A0L6G4); conditions: 30 °C, 60 min; 10 µM substrate
T5 construct: gene Csa_3G095040; full-length cDNA in pACYCDuet, E. coli BL21(DE3); cytosolic
T5 sequence (A0A0A0L6G4 entry or part of it): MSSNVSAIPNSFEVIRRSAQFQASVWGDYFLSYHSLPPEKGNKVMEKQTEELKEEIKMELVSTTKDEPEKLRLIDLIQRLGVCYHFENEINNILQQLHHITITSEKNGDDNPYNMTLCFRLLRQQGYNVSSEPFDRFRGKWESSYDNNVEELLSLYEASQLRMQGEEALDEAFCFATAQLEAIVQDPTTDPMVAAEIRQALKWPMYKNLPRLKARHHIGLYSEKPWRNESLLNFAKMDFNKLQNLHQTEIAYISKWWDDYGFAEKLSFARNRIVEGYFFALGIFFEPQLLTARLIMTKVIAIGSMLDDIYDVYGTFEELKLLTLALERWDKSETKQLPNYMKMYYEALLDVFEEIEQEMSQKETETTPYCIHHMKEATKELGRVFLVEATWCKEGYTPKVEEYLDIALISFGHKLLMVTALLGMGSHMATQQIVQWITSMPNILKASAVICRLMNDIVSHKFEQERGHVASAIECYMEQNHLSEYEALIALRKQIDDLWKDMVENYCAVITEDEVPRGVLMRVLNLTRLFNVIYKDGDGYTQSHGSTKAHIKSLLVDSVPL

CsTPS11 = molecular target: T6, CsTPS11 (Cucumis sativus, UniProt A0A0A0LMX2); conditions: 30 °C, 60 min; 10 µM substrate
T6 construct: gene Csa_2G299920; full-length cDNA in pACYCDuet, E. coli BL21(DE3); predicted plastid transit peptide
T6 sequence (A0A0A0LMX2 1-474): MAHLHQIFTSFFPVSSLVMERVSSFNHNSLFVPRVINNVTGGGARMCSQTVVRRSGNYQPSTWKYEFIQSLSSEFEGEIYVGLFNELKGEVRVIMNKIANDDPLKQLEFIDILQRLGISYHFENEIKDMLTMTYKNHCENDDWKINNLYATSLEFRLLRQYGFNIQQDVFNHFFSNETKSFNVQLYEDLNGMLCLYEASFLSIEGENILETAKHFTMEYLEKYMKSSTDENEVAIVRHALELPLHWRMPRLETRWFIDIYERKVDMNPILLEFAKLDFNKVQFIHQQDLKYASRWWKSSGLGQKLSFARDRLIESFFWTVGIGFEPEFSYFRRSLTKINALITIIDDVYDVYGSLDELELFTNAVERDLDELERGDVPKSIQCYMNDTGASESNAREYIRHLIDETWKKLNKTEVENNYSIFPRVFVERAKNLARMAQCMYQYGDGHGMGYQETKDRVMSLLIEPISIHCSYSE

CsTPS15 = molecular target: T7, CsTPS15 (Cucumis sativus, UniProt A0A0A0L782); conditions: 30 °C, 60 min; 10 µM substrate
T7 construct: gene Csa_3G040850; full-length cDNA in pACYCDuet, E. coli BL21(DE3); predicted plastid transit peptide
T7 sequence (A0A0A0L782 1-568): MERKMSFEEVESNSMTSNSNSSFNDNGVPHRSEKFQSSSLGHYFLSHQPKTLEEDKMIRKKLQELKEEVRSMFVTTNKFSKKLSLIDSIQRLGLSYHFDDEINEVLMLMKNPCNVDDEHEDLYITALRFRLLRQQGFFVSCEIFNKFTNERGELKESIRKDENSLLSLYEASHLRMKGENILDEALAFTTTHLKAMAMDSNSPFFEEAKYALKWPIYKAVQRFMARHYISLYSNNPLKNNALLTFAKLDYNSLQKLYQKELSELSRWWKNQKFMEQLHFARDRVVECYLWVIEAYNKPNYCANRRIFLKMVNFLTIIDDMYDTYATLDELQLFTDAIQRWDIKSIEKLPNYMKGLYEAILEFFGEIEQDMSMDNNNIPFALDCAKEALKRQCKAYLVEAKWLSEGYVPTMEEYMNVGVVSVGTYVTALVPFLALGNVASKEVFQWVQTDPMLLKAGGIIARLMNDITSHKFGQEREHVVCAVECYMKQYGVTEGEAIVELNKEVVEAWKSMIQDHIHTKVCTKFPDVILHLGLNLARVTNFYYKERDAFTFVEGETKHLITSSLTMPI

Compound	product formation, stir-bar GC-MS, recombinant E. coli protein (CsTPS24)	product formation, stir-bar GC-MS, recombinant E. coli protein (CsTPS12)	product formation, stir-bar GC-MS, recombinant E. coli protein (CsTPS24; 10 µM substrate)	product formation, stir-bar GC-MS, recombinant E. coli protein (CsTPS14)	product formation, stir-bar GC-MS, recombinant E. coli protein (CsTPS22)	product formation, stir-bar GC-MS, recombinant E. coli protein (CsTPS19)	product formation, stir-bar GC-MS, recombinant E. coli protein (CsTPS11)	product formation, stir-bar GC-MS, recombinant E. coli protein (CsTPS15)
CC(C)=CCC/C(C)=C/CC/C(C)=C/CC/C(C)=C/COP(=O)(O)OP(=O)(O)O [GGPP]	only CsTPS24 accepted GGPP to produce geranyl linalool	–	–	–	–	–	–	–
CC(C)=CCC/C(C)=C/CC/C(C)=C/COP(=O)(O)OP(=O)(O)O [FPP]	–	CsTPS12, CsTPS14 and CsTPS17, which all catalysed the formation of (E)‐β‐farnesene	both enzymes produced (E)‐nerolidol from FPP	CsTPS12, CsTPS14 and CsTPS17, which all catalysed the formation of (E)‐β‐farnesene	the major products of CsTPS22 were (E)‐nerolidol and cadinol	CsTPS19 predominantly catalysed the formation of (E,E)‐α‐farnesene from FPP	–	–
CC(C)=CCC/C(C)=C/COP(=O)(O)OP(=O)(O)O [GPP]	–	–	–	–	–	CsTPS19 which efficiently catalysed the formation of (E)‐β‐ocimene, myrcene and linalool from GPP	CsTPS11 and CsTPS15 both catalysed the formation of myrcene, limonene	CsTPS11 and CsTPS15 both catalysed the formation of myrcene, limonene
